Measured values taken from patent US20260125350A1, “CENTROMERE PROTEIN CENP-M SMALL MOLECULE INHIBITOR CENPEMLIN, AND PREPARATION METHOD THEREFOR AND USE THEREOF” (UNIVERSITY OF SCIENCE AND TECHNOLOGY OF CHINA, priority 2022, published 2026).

Tests used:
[1] = tested on: HeLa cells stably expressing GFP-CENP-N; experiment: Chromosome alignment phenotype in mitosis, immunofluorescence imaging; format: cell-based; settings: 1 μM, 1 h, after thymidine release
Method: • 1) HeLa cells stably expressing GFP-CENP-N were seeded on a round coverslip with a diameter of 12 mm; • 2) after 24 h, Thymidine was added to the cells at a final concentration of 2 mM for 14-16 h; • 3) the cells were washed three times with PBS prewarmed at 37° C. to elute Thymidine, and fresh culture medium was added to continue culturing for 8 h; • 4) cempelin was added to the experimental group at a final concentration of 1 μM, and the control group was added with an equal volume of DMSO for 1 h; • 5) the cells were fixed with PBS buffer containing 3.7% formaldehyde for 10 min; • 6) after 0.2% TritonX-100 permeabilization and 1% BSA blocking, ACA antibody was incubated at room temperature for 1 h; • 7) DAPI was stained for 3 min and then the slides were sealed; • 8) the slides were placed on the DV microscope stage and imaged by a 60×, NA=1.42 lens.

HeLa cells [2] = experiment: Real-time live cell imaging of mitosis (mitotic arrest); format: cell-based; settings: 1 μM
Method: • 1) Inoculate HeLa cells into 35 mm live cell culture dishes; • 2) transfect plasmid DNA: GFP-tubulin and mCherry-H2B after 24 h (the density of transfected plasmid cells is 70%-80%); • 3) replace with fresh culture medium 6 h after transfection and add 2 mM Thymidine to treat cells for 14-16 h; • 4) wash cells 3 times with PBS preheated at 37° C. to release cells, then replace with fresh culture medium to continue culturing; • 5) turn on the Applied Precision Personal DV microscope and thermostat to stabilize the temperature at 37° C.; • 6) 8-9 h after release, replace the cell culture medium with CO2-independent Medium, add cenpemlin with a final concentration of 1 μM or the same volume of DMSO; • 7) place the cells on the 37° C. thermostat stage of the DV microscope and shoot real-time under a 60×, NA=1.42 lens, taking one frame every 3 min.

[3] = molecular target: T1, interaction between CENP-M and CENP-L (Homo sapiens, UniProt Q9NSP4); experiment: Co-immunoprecipitation of GFP-CENP-M with FLAG-CENP-L from treated HEK293T cells, immunoblot; format: cell-based; settings: 1 μM, 1 h, FLAG beads pull-down
T1 construct: expressed in transfected cells; host or cells: HEK293T
Method: • 1) Inoculate HEK293T cells into 6 cm culture dishes; • 2) transfect plasmid DNA: GFP-CENP-M and FLAG-CENP-L after 24 h (the density of cells is 70%-80%); • 3) replace with fresh culture medium 4 h after transfection and continue to culture for 24 h; • 4) add cenpemlin with a final concentration of 1 μM or the same volume of DMSO to treat cells for 1 h; • 5) scrape the cells with a cell scraper, collect them in a centrifuge tube, and remove the culture medium by centrifugation at 1,000 rpm; • 6) add cell lysis buffer for ultrasonic disruption, and centrifuge at 12,000 rpm for 10 min; • 7) take the supernatant and incubate with FLAG beads for 4 h; • 8) wash the beads for three times with cell lysis buffer, boil the sample with sample buffer, and then perform electrophoresis and immunoblot analysis.

[4] = tested on: HeLa cells (cervical cancer cells); experiment: Trypan blue staining of cancer cells after treatment; format: cell-based; settings: 1 μM, 24 h
Method: (§1) • 1) HeLa cells (cervical cancer cells), MDA-MB-231 cells (triple negative breast cancer cells) and HepG2 cells (liver cancer cells) were seeded into 6 cm culture dishes; • 2) The small molecule compound cenpemlin or DMSO was added at a final concentration of 1 μM to treat the cells for 24 h; • 3) The cells were digested with trypsin and the cell suspension was taken for trypan blue staining; • 4) The blue-stained cells were observed and counted under an ordinary optical microscope.

[5] = tested on: MDA-MB-231 cells (triple negative breast cancer cells); experiment: as above; format: cell-based; settings: 1 μM, 24 h
Method: as §1

[6] = tested on: HepG2 cells (liver cancer cells); experiment: as above; format: cell-based; settings: 1 μM, 24 h
Method: as §1

[7] = tested on: liver cancer cells MHCC97-H cells; experiment: Liver implantation model of luciferase-stable liver cancer cells in mice, luciferase imaging; format: in vivo, NOD/SCID mice; settings: intraperitoneal injection, 11th day of administration; cenpemlin 2 mg/kg
Method: • 1) According to the published experimental protocol (Chen et al., 2011. Cancer Res), we implanted luciferase-stable liver cancer cells MHCC97-H cells (5×10^6 in 0.1 mL saline) into the liver of 6-week-old female NOD/SCID mice. The experiment was divided into three groups, namely the DMSO control group, the paclitaxel group and the cenpemlin group (2 mg/kg), with 10 mice in each group. • 2) After 14 days of modeling (successful modeling of luciferase test), the DMSO control group, the paclitaxel group and the cenpemlin experimental group (2 mg/kg) were intraperitoneally injected (0.2 mL per mouse; 0.1 mL was injected on both sides) […]. • 3) After four injections every other day (the 11th day of administration), the luciferase test was performed.

HeLa cells [8] = experiment: Elution (washout) effect, real-time live cell imaging after MG132 and compound treatment; format: cell-based; settings: 1 h with MG132 20 μM and compound, then washed out
Method: • 1) Seed HeLa cells into 35 mm live-cell imaging dishes; • 2) transfect plasmid DNA after 24 h: GFP-tubulin and mCherry-H2B (the density of transfected plasmid cells is 70%-80%); • 3) replace with fresh culture medium 6 h after transfection and add MG132 at a final concentration of 20 μM and cenpemlin or DMSO to treat the cells for 1 h; • 4) turn on the Applied Precision Personal DV microscope and the thermostat to stabilize the temperature at 37° C.; • 5) wash the cells three times with PBS prewarmed at 37° C. to release the cells, and then replace with fresh culture medium to continue culturing; • 6) immediately after release, replace the cell culture medium with CO2-independent Medium; • 7) place the cells on the 37° C. thermostat stage of the DV microscope and imaging in real time by a 60×, NA=1.42 lens, taking one frame every 3 min.

T1 sequence (Q9NSP4 whole entry): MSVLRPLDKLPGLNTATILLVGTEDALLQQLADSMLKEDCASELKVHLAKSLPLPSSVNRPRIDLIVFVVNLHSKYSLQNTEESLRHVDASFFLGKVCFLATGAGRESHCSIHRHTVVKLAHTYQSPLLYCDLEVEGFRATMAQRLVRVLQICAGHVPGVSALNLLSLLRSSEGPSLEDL

Row | interaction between CENP-M and CENP-L compared with control group [3] | SMILES | chromosome alignment in cell mitosis [1] | time after nuclear membrane rupture without entering the late stage (HeLa cells [2]; HeLa) | mitotic progression (delay) (HeLa cells [2]; HeLa GFP-tubulin/mCherry-H2B) | proportion of trypan blue stained cells [4] | proportion of trypan blue stained cells [5] | proportion of trypan blue stained cells [6] | number of cancer cells in the liver of mice (luciferase test) [7] | spindle phenotype after elution (HeLa cells [8]) | time to exit mitosis after elution (HeLa cells [8])
1 | weakened | OCC(O)C(O)C(O)C(O)/C=N/Nc1nc(N2CCOCC2)nc(N2CCOCC2)n1 (centres unmarked) [cenpemlin] | abnormal chromosome alignment | > 120 min | obvious mitotic delays | increase | increase | increase | significantly reduced | multipolar spindles | 45 min
2 |  | CC(=O)O[C@H]1C(=O)[C@@]2(C)[C@H]([C@H](OC(=O)c3ccccc3)[C@]3(O)C[C@H](OC(=O)[C@H](O)[C@@H](NC(=O)c4ccccc4)c4ccccc4)C(C)=C1C3(C)C)[C@]1(OC(C)=O)CO[C@@H]1C[C@@H]2O [paclitaxel, reference compound] |  |  |  |  |  |  | significantly reduced |  | 
